“Also recorded” adds a separate entry of the source.
Key:
[1] = biological target: T1, LOX (Glycine max, UniProt P08170); assay: Lipoxygenase assay; assay type: biochemical; conditions: mean ± SEM, triplicate
T1 sequence (P08170 1-839): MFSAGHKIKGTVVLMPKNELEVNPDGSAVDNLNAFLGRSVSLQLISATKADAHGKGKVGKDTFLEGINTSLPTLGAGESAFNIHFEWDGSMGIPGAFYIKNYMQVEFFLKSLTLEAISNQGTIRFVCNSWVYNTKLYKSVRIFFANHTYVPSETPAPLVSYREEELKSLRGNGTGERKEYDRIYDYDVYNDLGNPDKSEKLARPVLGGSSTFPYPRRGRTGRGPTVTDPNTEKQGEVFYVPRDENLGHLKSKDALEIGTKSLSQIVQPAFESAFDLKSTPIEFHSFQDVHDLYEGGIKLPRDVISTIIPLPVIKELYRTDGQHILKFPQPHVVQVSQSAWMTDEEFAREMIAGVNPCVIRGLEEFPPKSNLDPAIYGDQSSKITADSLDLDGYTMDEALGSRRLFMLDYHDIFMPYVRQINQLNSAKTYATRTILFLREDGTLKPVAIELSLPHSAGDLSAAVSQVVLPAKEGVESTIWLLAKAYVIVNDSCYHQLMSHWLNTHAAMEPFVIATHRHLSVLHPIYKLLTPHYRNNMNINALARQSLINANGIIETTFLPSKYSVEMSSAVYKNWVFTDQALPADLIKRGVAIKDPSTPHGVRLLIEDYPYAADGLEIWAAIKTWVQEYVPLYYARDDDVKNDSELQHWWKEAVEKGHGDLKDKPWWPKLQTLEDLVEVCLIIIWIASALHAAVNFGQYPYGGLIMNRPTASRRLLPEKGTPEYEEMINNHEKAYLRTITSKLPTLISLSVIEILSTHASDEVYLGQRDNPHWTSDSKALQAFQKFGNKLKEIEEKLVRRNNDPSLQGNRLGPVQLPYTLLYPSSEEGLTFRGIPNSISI

[2] = biological target: BChE (Homo sapiens, UniProt P06276); conditions: mean ± SEM, triplicate
[3] = biological target: α-glucosidase (Saccharomyces cerevisiae, UniProt P53341); assay: α-Glucosidase assay; assay type: biochemical; conditions: for α-glucosidase inhibition, inhibition (%) at 0.5 mM / IC50: mean ± SEM, triplicate; for IC50: read-out: α-glucosidase inhibition, IC50
[4] = biological target: urease (Canavalia ensiformis, UniProt P07374); conditions: mean ± SEM, triplicate; for IC50: read-out: urease inhibition, IC50
[5] = biological target: AChE (Homo sapiens, UniProt P22303); conditions: for AChE inhibition, inhibition (%) at 0.5 mM / IC50: mean ± SEM, triplicate; for IC50: read-out: AChE inhibition, IC50
AChE, sequence (P22303 32-614): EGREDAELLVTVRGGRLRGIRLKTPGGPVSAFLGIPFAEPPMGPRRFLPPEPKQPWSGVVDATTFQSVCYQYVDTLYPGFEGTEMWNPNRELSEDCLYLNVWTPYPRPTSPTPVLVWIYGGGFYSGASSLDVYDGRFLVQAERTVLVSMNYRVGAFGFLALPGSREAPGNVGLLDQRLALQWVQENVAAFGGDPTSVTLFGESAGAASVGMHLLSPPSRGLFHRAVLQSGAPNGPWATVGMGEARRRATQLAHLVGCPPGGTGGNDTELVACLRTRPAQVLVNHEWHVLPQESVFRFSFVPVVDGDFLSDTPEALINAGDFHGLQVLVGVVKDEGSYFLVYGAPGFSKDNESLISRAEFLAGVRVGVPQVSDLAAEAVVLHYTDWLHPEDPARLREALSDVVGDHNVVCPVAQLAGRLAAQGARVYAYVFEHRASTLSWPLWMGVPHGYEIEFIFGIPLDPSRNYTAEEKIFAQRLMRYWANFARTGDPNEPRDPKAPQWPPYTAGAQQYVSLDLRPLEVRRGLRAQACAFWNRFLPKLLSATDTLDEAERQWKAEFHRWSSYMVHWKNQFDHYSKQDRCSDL

α-glucosidase, sequence (P53341 whole entry): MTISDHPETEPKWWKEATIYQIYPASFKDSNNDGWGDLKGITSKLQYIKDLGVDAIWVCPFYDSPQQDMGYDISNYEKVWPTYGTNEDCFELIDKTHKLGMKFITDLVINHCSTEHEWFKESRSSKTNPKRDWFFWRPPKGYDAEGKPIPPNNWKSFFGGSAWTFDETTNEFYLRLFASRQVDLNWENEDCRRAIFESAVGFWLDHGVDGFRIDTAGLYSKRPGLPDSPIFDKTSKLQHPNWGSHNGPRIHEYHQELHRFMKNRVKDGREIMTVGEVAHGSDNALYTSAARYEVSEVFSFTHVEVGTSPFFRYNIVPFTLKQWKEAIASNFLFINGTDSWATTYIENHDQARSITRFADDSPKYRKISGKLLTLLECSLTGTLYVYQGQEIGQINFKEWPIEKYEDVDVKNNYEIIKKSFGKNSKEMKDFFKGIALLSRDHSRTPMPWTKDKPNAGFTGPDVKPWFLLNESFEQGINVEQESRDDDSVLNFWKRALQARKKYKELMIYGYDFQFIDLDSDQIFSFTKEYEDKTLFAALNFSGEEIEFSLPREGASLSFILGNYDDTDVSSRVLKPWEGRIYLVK
urease, sequence (P07374 whole entry, looked up): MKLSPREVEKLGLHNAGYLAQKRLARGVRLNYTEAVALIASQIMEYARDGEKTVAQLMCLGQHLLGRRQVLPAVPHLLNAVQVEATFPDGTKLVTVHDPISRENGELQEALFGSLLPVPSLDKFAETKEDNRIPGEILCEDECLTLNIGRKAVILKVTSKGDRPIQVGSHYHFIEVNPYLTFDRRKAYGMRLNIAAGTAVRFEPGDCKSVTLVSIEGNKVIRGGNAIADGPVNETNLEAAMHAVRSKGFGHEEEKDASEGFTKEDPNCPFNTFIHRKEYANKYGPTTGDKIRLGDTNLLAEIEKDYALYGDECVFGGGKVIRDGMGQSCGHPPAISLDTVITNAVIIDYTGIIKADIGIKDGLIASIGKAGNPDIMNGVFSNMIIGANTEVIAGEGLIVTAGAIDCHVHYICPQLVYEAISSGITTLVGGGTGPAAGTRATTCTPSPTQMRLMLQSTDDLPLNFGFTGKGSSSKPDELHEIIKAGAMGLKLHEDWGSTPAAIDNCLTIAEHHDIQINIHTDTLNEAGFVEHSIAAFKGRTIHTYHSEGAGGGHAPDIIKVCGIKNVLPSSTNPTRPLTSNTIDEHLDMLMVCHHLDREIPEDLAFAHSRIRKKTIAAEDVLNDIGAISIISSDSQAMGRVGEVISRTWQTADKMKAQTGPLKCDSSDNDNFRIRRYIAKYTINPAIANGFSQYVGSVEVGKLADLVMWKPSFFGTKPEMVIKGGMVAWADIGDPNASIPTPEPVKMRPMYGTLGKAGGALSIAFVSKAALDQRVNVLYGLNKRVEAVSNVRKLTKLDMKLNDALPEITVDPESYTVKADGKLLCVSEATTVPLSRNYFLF
BChE, sequence (P06276 29-602, species assumed): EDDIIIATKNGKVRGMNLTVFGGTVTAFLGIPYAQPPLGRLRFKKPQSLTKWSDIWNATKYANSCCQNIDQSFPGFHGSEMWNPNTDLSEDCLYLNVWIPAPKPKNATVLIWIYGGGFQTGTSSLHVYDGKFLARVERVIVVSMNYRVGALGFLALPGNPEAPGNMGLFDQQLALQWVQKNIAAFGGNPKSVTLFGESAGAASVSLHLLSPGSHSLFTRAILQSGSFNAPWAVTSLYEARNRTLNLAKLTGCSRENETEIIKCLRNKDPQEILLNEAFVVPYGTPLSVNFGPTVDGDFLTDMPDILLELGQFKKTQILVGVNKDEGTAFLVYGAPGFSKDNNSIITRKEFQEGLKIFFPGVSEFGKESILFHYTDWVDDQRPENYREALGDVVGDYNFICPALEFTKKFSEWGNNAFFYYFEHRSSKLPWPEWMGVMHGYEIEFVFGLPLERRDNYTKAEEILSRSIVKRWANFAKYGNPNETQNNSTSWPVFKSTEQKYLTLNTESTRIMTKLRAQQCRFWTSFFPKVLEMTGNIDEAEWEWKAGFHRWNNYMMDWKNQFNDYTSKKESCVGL

SMILES: Cc1ccc(S(=O)(=O)N2CCC(c3nnc(SCC(=O)Nc4c(C)cccc4C)n3C)CC2)cc1 [Compound 12l, 1-(4-toluenesulfonyl)-4-{3-[N-(2,6-dimethylphenyl)-2-ethanamoylthio]-4-methyl-4H-1,2,4-triazol-5-yl} piperidine]
- LOX inhibition, inhibition (%) at 0.25 mM [1]: 45.29 ± 0.56%
- BChE inhibition, inhibition (%) at 0.5 mM [2]: 41.87 ± 0.63%
- α-glucosidase inhibition, inhibition (%) at 0.5 mM [3]: 53.67 ± 1.67%
- IC50 [3]: 463.3 ± 1.36 µM
- urease inhibition, inhibition (%) at 0.25 mM [4]: 46.19 ± 1.76%
- AChE inhibition, inhibition (%) at 0.5 mM [5]: 62.25 ± 0.86%
- IC50 [5]: 287.7 ± 0.63 µM

SMILES: Cc1ccc(S(=O)(=O)N2CCC(c3nnc(SCC(=O)Nc4cc(C)cc(C)c4)n3C)CC2)cc1 [Compound 12m, 1-(4-toluenesulfonyl)-4-{3-[N-(3,5-dimethylphenyl)-2-ethanamoylthio]-4-methyl-4H-1,2,4-triazol-5-yl} piperidine]
- LOX inhibition, inhibition (%) at 0.25 mM [1]: 37.45 ± 0.37%
- BChE inhibition, inhibition (%) at 0.5 mM [2]: 91.25 ± 0.45%
- IC50 ([2]; read-out: BChE inhibition, IC50): 0.038 µM
- α-glucosidase inhibition, inhibition (%) at 0.5 mM [3]: 87.21 ± 1.46%
- IC50 [3]: 142.7 ± 1.23 µM
- urease inhibition, inhibition (%) at 0.25 mM [4]: 98.65 ± 1.67%
- IC50 [4]: 14.3 ± 1.27 µM
- activity against AChE enzyme (in words) [5]: excellent activity
- AChE inhibition, inhibition (%) at 0.5 mM [5]: 92.73 ± 0.87%
- IC50 [5]: 0.42 ± 0.67 µM

SMILES: CCc1cccc(C)c1NC(=O)CSc1nnc(C2CCN(S(=O)(=O)c3ccc(C)cc3)CC2)n1C [Compound 12n, 1-(4-toluenesulfonyl)-4-{3-[N-(2-ethyl-6-methylphenyl)-2-ethanamoylthio]-4-methyl-4H-1,2,4-triazol-5-yl} piperidine]
- LOX inhibition, inhibition (%) at 0.25 mM [1]: 35.65 ± 0.49%
- BChE inhibition, inhibition (%) at 0.5 mM [2]: 36.24 ± 0.59%
- activity against α-glucosidase enzyme (in words) [3]: excellent activity; also recorded: most active compound
- α-glucosidase inhibition, inhibition (%) at 0.5 mM [3]: 92.65 ± 1.64%
- IC50 [3]: 29.4 ± 1.32 µM
- urease inhibition, inhibition (%) at 0.25 mM [4]: 32.85 ± 1.39%
- AChE inhibition, inhibition (%) at 0.5 mM [5]: 61.53 ± 0.65%
- IC50 [5]: 328.1 ± 0.45 µM

SMILES: Cc1ccc(S(=O)(=O)N2CCC(c3nnc(SCC(=O)Nc4c(C)cccc4[N+](=O)[O-])n3C)CC2)cc1 [Compound 12o, 1-(4-toluenesulfonyl)-4-{3-[N-(2-methyl-6-nitrophenyl)-2-ethanamoylthio]-4-methyl-4H-1,2,4-triazol-5-yl} piperidine]
- LOX inhibition, inhibition (%) at 0.25 mM [1]: 64.28 ± 0.73%
- IC50 ([1]; read-out: LOX inhibition, IC50): 93.81 ± 0.34 µM
- BChE inhibition, inhibition (%) at 0.5 mM [2]: 39.65 ± 0.42%
- α-glucosidase inhibition, inhibition (%) at 0.5 mM [3]: 72.23 ± 1.51%
- IC50 [3]: 285.6 ± 1.23 µM
- urease inhibition, inhibition (%) at 0.25 mM [4]: 56.35 ± 1.67%
- IC50 [4]: 241.8 ± 0.42 µM
- AChE inhibition, inhibition (%) at 0.5 mM [5]: 81.53 ± 0.96%
- IC50 [5]: 129.6 ± 0.73 µM

Source: PMC9476189 (ACS Omega, 2022)
